Source: patent publication US12391737B2, “Soluble NPY2 receptor agonists” (Boehringer Ingelheim International GmbH, priority 2020, dated 2025)
*1 amine or outer side, *2 acyl side, *3 side chain or, on linkers, in order; H or OH if unused. Where a SMILES comes first, the peptide text is derived from it. Side-chain parts run from the residue outwards. The star is where a group is joined. C18 diacid = O=C(O)CCCCCCCCCCCCCCCCC(=O)*; γGlu = O=C(O)[C@H](CCC(=O)[*:2])N[*:1]; Isovaleryl = CC(C)CC(=O)*; Ahx = NCCCCCC(=O)O

Key:
[1] = target: T1, Human Neuropeptide Y2 Receptor (Homo sapiens, UniProt P49146); test: Radioligand binding competition assay (RLB); settings: Table 3, 125I-PYY(1-36) competition; read-out: Ki
T1 construct: purchased CHEMICON HTS066M
T1 sequence (P49146 1-381): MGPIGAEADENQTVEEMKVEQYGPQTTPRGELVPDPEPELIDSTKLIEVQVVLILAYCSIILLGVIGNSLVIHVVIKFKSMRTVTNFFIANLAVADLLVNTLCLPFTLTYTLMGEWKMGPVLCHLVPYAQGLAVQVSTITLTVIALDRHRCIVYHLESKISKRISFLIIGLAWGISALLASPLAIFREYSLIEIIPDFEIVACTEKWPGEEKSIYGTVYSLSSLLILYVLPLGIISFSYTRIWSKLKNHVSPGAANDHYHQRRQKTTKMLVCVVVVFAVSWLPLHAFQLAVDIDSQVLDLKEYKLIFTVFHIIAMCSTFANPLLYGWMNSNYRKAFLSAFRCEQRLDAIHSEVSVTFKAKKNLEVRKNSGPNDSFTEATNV
How it was run: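 Competition binding used membranes expressing the receptor (0.5 μg protein/well) in 50 mM HEPES, 5 mM MgCl2, 1 mM CaCl2, pH 7.4 with 0.2% ovalbumin, incubated 2 h at room temperature with shaking. Bound radioligand was collected by filtration onto PEI-soaked GF/C filters and counted; IC50 from nonlinear sigmoidal fits.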

[2] = Solubility determination; settings: for Sol6: pH 6; for Sol7: pH 7
How it was run: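 Solubility is derived from the ratio of reversed-phase peak areas, filtered sample over a control dissolved at 1 mg/ml in 50% acetonitrile. Peptides are agitated for 2 hours at room temperature in 0.1 M sodium diphosphate at pH 6.4 or 7.0, aiming at 10 mg/ml.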

Ki [1] [nM] | Sol6 [2] [mg/mL] | Sol7 [2] [mg/mL] | Compound
4.33 | >10.0 | >10.0 | CC[C@H](C)[C@H](NC(=O)[C@H](CCC(=O)O)NC(=O)[C@H](CCC(=O)O)NC(=O)[C@@H]1CCCN1C(=O)[C@@H](NC(=O)[C@H](C)NC(=O)[C@H](CC(=O)O)NC(=O)[C@H](CCC(=O)O)NC(=O)[C@H](CCC(=O)O)NC(=O)[C@@H]1CCCN1C(=O)[C@H](CCCCNC(=O)CCCCCNC(=O)CC[C@H](NC(=O)CCCCCCCCCCCCCCCCC(=O)O)C(=O)O)NC(=O)[C@H](CCC(=O)O)NC(=O)[C@@H]1CCCN1C(=O)[C@H](C)NC(=O)CC(C)C)[C@@H](C)O)C(=O)N[C@@H](CCC(N)=O)C(=O)N[C@@H](CCCNC(=N)N)C(=O)N[C@@H](Cc1ccc(O)cc1)C(=O)N[C@@H](Cc1ccc(O)cc1)C(=O)N[C@@H](C)C(=O)N[C@@H](CO)C(=O)N[C@@H](CC(C)C)C(=O)N[C@@H](CCCNC(=N)N)C(=O)N[C@@H](Cc1c[nH]cn1)C(=O)N[C@@H](Cc1ccc(O)cc1)C(=O)N[C@@H](Cc1ccc(O)cc1)C(=O)N[C@@H](CC(N)=O)C(=O)N[C@@H](Cc1c[nH]c2ccccc12)C(=O)N[C@@H](CC(C)C)C(=O)N[C@H](C(=O)N[C@@H](CCCNC(=N)N)C(=O)N[C@@H](CCC(N)=O)C(=O)N[C@@H](CCCNC(=N)N)C(=O)N[C@@H](Cc1ccc(O)cc1)C(N)=O)[C@@H](C)O [Compound 86, N{alpha-4}-(3-methylbutanoyl)-N{epsilon-7}-(6-[(4S)-4-carboxy-4-(17-carboxyheptadecanamido)butanamido]hexanoyl)-[4A,7K,9E,13T,17I,18Q,28Y,30W,31L]-hPYY(4-36)]
19.8 | 9.8 | 10.0 | CC(C)CC(=O)N[C@@H](C)C(=O)N1CCC[C@H]1C(=O)N[C@@H](CCC(=O)O)C(=O)N[C@@H](CCCCNC(=O)CCCCCNC(=O)CC[C@H](NC(=O)CCCCCCCCCCCCCCCCC(=O)O)C(=O)O)C(=O)N1CCC[C@H]1C(=O)N[C@@H](CCC(=O)O)C(=O)N[C@@H](CCC(=O)O)C(=O)N[C@@H](CC(=O)O)C(=O)N[C@@H](C)C(=O)N[C@@H](CCC(=O)O)C(=O)N1CCC[C@H]1C(=O)N[C@@H](CCC(=O)O)C(=O)N[C@@H](CCC(=O)O)C(=O)N[C@@H](CC(C)C)C(=O)N[C@@H](CCC(N)=O)C(=O)N[C@@H](CCCNC(=N)N)C(=O)N[C@@H](Cc1ccc(O)cc1)C(=O)N[C@@H](Cc1ccc(O)cc1)C(=O)N[C@H](C(=O)N[C@@H](CO)C(=O)N[C@@H](CC(C)C)C(=O)N[C@@H](CCCNC(=N)N)C(=O)N[C@@H](Cc1c[nH]cn1)C(=O)N[C@@H](Cc1ccc(O)cc1)C(=O)N[C@@H](Cc1ccc(O)cc1)C(=O)N[C@@H](CCC(N)=O)C(=O)N[C@@H](Cc1c[nH]c2ccccc12)C(=O)N[C@@H](CC(C)C)C(=O)N[C@H](C(=O)N[C@@H](CCCNC(=N)N)C(=O)N[C@@H](CCC(N)=O)C(=O)N[C@@H](CCCNC(=N)N)C(=O)N[C@@H](Cc1ccc(O)cc1)C(N)=O)[C@@H](C)O)[C@@H](C)O [Compound 41, N{alpha-4}-(3-methylbutanoyl)-N{epsilon-7}-(6-[(4S)-4-carboxy-4-(17-carboxyheptadecanamido)butanamido]hexanoyl)[4A,7K,9E,13E,18Q,22T,28Y,30W,31L]-hPYY(4-36)] (Isovaleryl-APEK([Ahx-γGlu-C18 diacid])PEEDAEPEELQRYYTSLRHYYQWLTRQRY-NH2)
4.28 | 9.9 | 10.0 | CC[C@H](C)[C@H](NC(=O)[C@H](CCC(=O)O)NC(=O)[C@H](CCC(=O)O)NC(=O)[C@@H]1CCCN1C(=O)[C@H](CCC(=O)O)NC(=O)[C@H](C)NC(=O)[C@H](CC(=O)O)NC(=O)[C@H](CCC(=O)O)NC(=O)[C@H](CCC(=O)O)NC(=O)[C@@H]1CCCN1C(=O)[C@H](CCCCNC(=O)CCCCCNC(=O)CC[C@H](NC(=O)CCCCCCCCCCCCCCCCC(=O)O)C(=O)O)NC(=O)[C@H](CCC(=O)O)NC(=O)[C@@H]1CCCN1C(=O)[C@H](C)NC(=O)CC(C)C)C(=O)N[C@@H](CCC(N)=O)C(=O)N[C@@H](CCCNC(=N)N)C(=O)N[C@@H](Cc1ccc(O)cc1)C(=O)N[C@@H](Cc1ccc(O)cc1)C(=O)N[C@H](C(=O)N[C@@H](CO)C(=O)N[C@@H](CC(C)C)C(=O)N[C@@H](CCCNC(=N)N)C(=O)N[C@@H](Cc1c[nH]cn1)C(=O)N[C@@H](Cc1ccc(O)cc1)C(=O)N[C@@H](Cc1ccc(O)cc1)C(=O)N[C@@H](CC(N)=O)C(=O)N[C@@H](Cc1c[nH]c2ccccc12)C(=O)N[C@@H](CC(C)C)C(=O)N[C@H](C(=O)N[C@@H](CCCNC(=N)N)C(=O)N[C@@H](CCC(N)=O)C(=O)N[C@@H](CCCNC(=N)N)C(=O)N[C@@H](Cc1ccc(O)cc1)C(N)=O)[C@@H](C)O)C(C)C [Compound 112, N{alpha-4}-(3-methylbutanoyl)-N{epsilon-7}-(6-[(4S)-4-carboxy-4-(17-carboxyheptadecanamido)butanamido]hexanoyl)-[4A,7K,9E,13E,17I,18Q,22V,28Y,30W,31L]-hPYY(4-36)]
3.65 | 9.1 | 8.7 | CC(C)CC(=O)N[C@@H](C)C(=O)N1CCC[C@H]1C(=O)N[C@@H](CCC(=O)O)C(=O)N[C@@H](CCCCNC(=O)CCCCCNC(=O)CC[C@H](NC(=O)CCCCCCCCCCCCCCCCC(=O)O)C(=O)O)C(=O)N1CCC[C@H]1C(=O)N[C@@H](CCC(=O)O)C(=O)N[C@@H](CCC(=O)O)C(=O)N[C@@H](CC(=O)O)C(=O)N[C@@H](C)C(=O)N[C@@H](C)C(=O)N1CCC[C@H]1C(=O)N[C@@H](CCC(=O)O)C(=O)N[C@@H](CCC(=O)O)C(=O)N[C@@H](CC(C)C)C(=O)N[C@@H](CCC(N)=O)C(=O)N[C@@H](CCCCN)C(=O)N[C@@H](Cc1ccc(O)cc1)C(=O)N[C@@H](Cc1ccc(O)cc1)C(=O)N[C@H](C(=O)N[C@@H](CO)C(=O)N[C@@H](CC(C)C)C(=O)N[C@@H](CCCNC(=N)N)C(=O)N[C@@H](Cc1c[nH]cn1)C(=O)N[C@@H](Cc1ccc(O)cc1)C(=O)N[C@@H](Cc1ccc(O)cc1)C(=O)N[C@@H](CC(N)=O)C(=O)N[C@@H](Cc1c[nH]c2ccccc12)C(=O)N[C@@H](CC(C)C)C(=O)N[C@H](C(=O)N[C@@H](CCCNC(=N)N)C(=O)N[C@@H](CCC(N)=O)C(=O)N[C@@H](CCCNC(=N)N)C(=O)N[C@@H](Cc1ccc(O)cc1)C(N)=O)[C@@H](C)O)C(C)C [Compound 123, N{alpha-4}-(3-methylbutanoyl)-N{epsilon-7}-(6-[(4S)-4-carboxy-4-(17-carboxyheptadecanamido)butanamido]hexanoyl)-[4A,7K,9E,13A,18Q,19K,22V,28Y,30W,31L]-hPYY(4-36)]
